Common to all, as to assay: DTP human tumour cell line panel, 48 h
Test [1] deals with A498 renal.
The test system of test [2] is CCRF-CEM leukemia.
For test [3], the system named is EKVX NSCLC.
Test [4] deals with LOX IMVI melanoma.
In test [5] the test system is NCI-H460 lung.
Test [6] has as its system OVCAR-4 ovarian.
Test [7] has as its system TK-10 renal.
Test [8] relates to UACC-62 melanoma.
In test [9] the test system is IGROV1 ovarian.
Test [10] has as its system SF-295 CNS.

One may read the TGI as the concentration giving total growth inhibition. Low readings indicate more potent growth arrest, high ones less potent growth arrest. As usually defined, the GI50 is the concentration that inhibits growth by half.

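Test compounds were applied to cells in 96-well plates for 48 hours at 5 doses. GI50 = concentration required for 50% inhibition of growth. The concentration for full growth arrest is given as TGI.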 Bounds are passed on as bounds.

For `COc1c(Cl)cc(S(=O)O)cc1Cl`, the TGI in [1], in [2], in test [3], in test [4], in test [5] and in test [6] was > 100 µM in each case. Further, the TGI in test [7] and in test [8] was > 100 µM throughout.

For `Fc1ccc(-c2nnc3sc(COc4ccccc4Cl)nn23)cc1Cl`, the GI50 in [1] is 34.6 µM; in [2], 20.8 µM; in [3], 39.2 µM; in test [9] it was 17.7 µM; in [4], 16.5 µM; in test [6], 28.2 µM. Also, the values for the GI50 in test [10], in test [7] and in test [8] were 61.8 µM, > 100 µM and 38.4 µM, respectively. Further, the TGI was 93.6 µM in test [1]; 52.6 µM in test [2]; > 100 µM in [3]; 62.8 µM in [9]; 31.6 µM in [4]; 78.4 µM in test [6]. The TGI in test [10], in test [7] and in test [8] was > 100 µM each time.

For the molecule `c1ccc2sc(SCN(C3CCCCC3)C3CCCCC3)nc2c1`, the TGI in test [1], in test [3], in test [9], in test [4], in test [5] and in test [6] was > 100 µM each time. Besides, the concentration for total growth inhibition (TGI) in test [10], in test [7] and in test [8] was > 100 µM each time.

As for `CC(CO)(CO)Nc1ncnc2ccccc12`, the TGI in test [1], in test [2], in test [3], in [9], in [4] and in test [5] was > 100 µM each time. The TGI in test [6], in test [10], in test [7] and in test [8] was > 100 µM in each case.

Turning to `Nc1nnc(N)n1NC(=O)C(=O)Nc1ccc([N+](=O)[O-])cc1`, the TGI in test [1], in [2], in test [3], in [9], in test [4] and in [5] was > 100 µM throughout. The concentration for total growth inhibition (TGI) in test [6], in [10], in [7] and in test [8] was > 100 µM in each case.

Turning to `NC(=O)Nc1cc(O)ccc1N=Nc1ccc(S(=O)(=O)Nc2ccccn2)cc1`, the TGI in [1], in [2], in [3], in test [9], in [4] and in test [5] was > 100 µM throughout. For the same molecule, the TGI in [6], in test [10], in test [7] and in [8] was > 100 µM each time.

Consider `COc1cc(O)c2c(c1)C(=O)c1cc(C)cc(O)c1C2=O`, for which the TGI in test [1], in test [2], in test [3], in test [9], in test [4] and in [5] was > 100 µM throughout. For the same molecule, the TGI in test [6], in test [10] and in test [8] was > 100 µM throughout.

These data come from PubChem BioAssay (NCI).
